Measurements published in ChEMBL document CHEMBL1201862, “PubChem BioAssay data set” (2004).
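Where inhibition never reached the appropriate level, the endpoint shown equals the highest concentration tested. Otherwise, values were interpolated linearly from a five-concentration, 48-hour dose response in 96-well plates. GI50 marks 50% less growth.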 Activity calls are given as the source filed them. No stated cut-off is given here; in the data, active = GI50 up to about 1.1 µM and inactive = higher.

Key:
Assay in all cases: NCI tumour cell line growth inhibition, 48 h
SW-620 = test system: SW-620
UO-31 = test system: UO-31
OVCAR-8 = test system: OVCAR-8
SF-539 = test system: SF-539
SNB-75 = test system: SNB-75
HOP-92 = test system: HOP-92
OVCAR-5 = test system: OVCAR-5
SK-MEL-2 = test system: SK-MEL-2
HOP-62 = test system: HOP-62
CCRF-CEM = test system: CCRF-CEM
SNB-19 = test system: SNB-19
HCT-15 = test system: HCT-15
M14 = test system: M14
UACC-257 = test system: UACC-257
EKVX = test system: EKVX
MDA-MB-435 = test system: MDA-MB-435
HT-29 = test system: HT-29
UACC-62 = test system: UACC-62
DU-145 = test system: DU-145
NCI-H522 = test system: NCI-H522
RPMI-8226 = test system: RPMI-8226
NCI-H226 = test system: NCI-H226
SR = test system: SR
T47D = test system: T47D
HL-60 = test system: HL-60
BT-549 = test system: BT-549
NCI-H460 = test system: NCI-H460
HCC 2998 = test system: HCC 2998
A498 = test system: A498
LOX IMVI = test system: LOX IMVI
SK-OV-3 = test system: SK-OV-3
Malme-3M = test system: Malme-3M
SF-295 = test system: SF-295
NCI-H23 = test system: NCI-H23
SK-MEL-5 = test system: SK-MEL-5
SF-268 = test system: SF-268
COLO 205 = test system: COLO 205
IGROV-1 = test system: IGROV-1
KM12 = test system: KM12
MDA-N = test system: MDA-N
MCF7 = test system: MCF7
U-251 = test system: U-251
Hs-578T = test system: Hs-578T
NCI/ADR-RES = test system: NCI/ADR-RES
OVCAR-4 = test system: OVCAR-4
MDA-MB-231 = test system: MDA-MB-231
786-0 = test system: 786-0
CAKI-1 = test system: CAKI-1
ACHN = test system: ACHN
PC-3 = test system: PC-3
MOLT-4 = test system: MOLT-4
K562 = test system: K562
SN12C = test system: SN12C
OVCAR-3 = test system: OVCAR-3
HCT-116 = test system: HCT-116
SK-MEL-28 = test system: SK-MEL-28
A549 = test system: A549

For `COC(=O)C1C(OC(=O)c2ccccc2)CC2CCC1N2C(N)=O` (configuration not stated), which GI50 (SW-620) is on record?
Its GI50 is > 100 µM (inactive).

And the GI50 (UO-31)?
Its GI50 is > 100 µM (inactive).

And the GI50 (OVCAR-8)?
Its GI50 is > 100 µM (inactive).

What about the GI50 (SF-539) of the same compound?
The GI50 was > 100 µM (inactive).

And the GI50 (SNB-75)?
The GI50 was > 100 µM (inactive).

And the GI50 (HOP-92)?
Its GI50 is > 100 µM (inactive).

What about the GI50 (OVCAR-5) of the same compound?
The GI50 was > 100 µM (inactive).

What about the GI50 (SK-MEL-2) of the same compound?
Its GI50 is > 100 µM (inactive).

And the GI50 (HOP-62)?
The GI50 was > 100 µM (inactive).

And the GI50 (CCRF-CEM)?
The GI50 was > 100 µM (inactive).

What about the GI50 (SNB-19) of the same compound?
The GI50 was > 100 µM (inactive).

What about the GI50 (HCT-15) of the same compound?
Its GI50 is > 100 µM.

What about the GI50 (M14) of the same compound?
The GI50 was > 100 µM (inactive).

And the GI50 (UACC-257)?
Its GI50 is > 100 µM (inactive).

And the GI50 (EKVX)?
The GI50 was > 100 µM (inactive).

And the GI50 (MDA-MB-435)?
Its GI50 is > 100 µM (inactive).

What about the GI50 (HT-29) of the same compound?
Its GI50 is > 100 µM (inactive).

And the GI50 (UACC-62)?
The GI50 was > 100 µM (inactive).

And the GI50 (DU-145)?
Its GI50 is > 100 µM (inactive).

What about the GI50 (NCI-H522) of the same compound?
The GI50 was > 100 µM (inactive).

And the GI50 (RPMI-8226)?
Its GI50 is > 100 µM (inactive).

And the GI50 (NCI-H226)?
Its GI50 is > 100 µM (inactive).

And the GI50 (SR)?
The GI50 was > 100 µM (inactive).

And the GI50 (T47D)?
Its GI50 is > 100 µM (inactive).

What about the GI50 (HL-60) of the same compound?
Its GI50 is > 100 µM (inactive).

What about the GI50 (BT-549) of the same compound?
Its GI50 is > 100 µM (inactive).

What about the GI50 (NCI-H460) of the same compound?
The GI50 was > 100 µM (inactive).

What about the GI50 (HCC 2998) of the same compound?
Its GI50 is > 100 µM (inactive).

What about the GI50 (A498) of the same compound?
Its GI50 is > 100 µM (inactive).

And the GI50 (LOX IMVI)?
Its GI50 is > 100 µM (inactive).

And the GI50 (SK-OV-3)?
Its GI50 is > 100 µM (inactive).

And the GI50 (Malme-3M)?
Its GI50 is > 100 µM (inactive).

What about the GI50 (SF-295) of the same compound?
Its GI50 is > 100 µM (inactive).

And the GI50 (NCI-H23)?
Its GI50 is > 100 µM (inactive).

What about the GI50 (SK-MEL-5) of the same compound?
The GI50 was > 100 µM (inactive).

And the GI50 (SF-268)?
Its GI50 is > 100 µM (inactive).

And the GI50 (COLO 205)?
The GI50 was > 100 µM (inactive).

What about the GI50 (IGROV-1) of the same compound?
The GI50 was > 100 µM (inactive).

And the GI50 (KM12)?
Its GI50 is > 100 µM (inactive).

What about the GI50 (MDA-N) of the same compound?
The GI50 was > 100 µM (inactive).

What about the GI50 (MCF7) of the same compound?
Its GI50 is > 100 µM (inactive).

What about the GI50 (U-251) of the same compound?
Its GI50 is > 100 µM (inactive).

And the GI50 (Hs-578T)?
Its GI50 is > 100 µM (inactive).

And the GI50 (NCI/ADR-RES)?
The GI50 was > 100 µM (inactive).

What about the GI50 (OVCAR-4) of the same compound?
Its GI50 is > 100 µM (inactive).

What about the GI50 (MDA-MB-231) of the same compound?
The GI50 was > 100 µM (inactive).

What about the GI50 (786-0) of the same compound?
Its GI50 is > 100 µM (inactive).

And the GI50 (CAKI-1)?
Its GI50 is > 100 µM (inactive).

What about the GI50 (ACHN) of the same compound?
The GI50 was > 100 µM (inactive).

And the GI50 (PC-3)?
The GI50 was > 100 µM (inactive).

And the GI50 (MOLT-4)?
The GI50 was > 100 µM (inactive).

What about the GI50 (K562) of the same compound?
Its GI50 is > 100 µM (inactive).

What about the GI50 (SN12C) of the same compound?
Its GI50 is > 100 µM (inactive).

What about the GI50 (OVCAR-3) of the same compound?
The GI50 was > 100 µM (inactive).

What about the GI50 (HCT-116) of the same compound?
The GI50 was > 100 µM (inactive).

And the GI50 (SK-MEL-28)?
Its GI50 is > 100 µM (inactive).

And the GI50 (A549)?
Its GI50 is > 100 µM (inactive).
